Experimental data: US7795226B2, “Control of radiation injury” (Biotempt B.V., priority 2006, dated 2010)

What was measured:
gamma-irradiated mice = conditions: cited from earlier work; for protection against gamma-irradiation (in words): mouse, in vivo
[1] = tested on: BALB/c mice exposed whole body to 10 Gy 137Cs-γ-irradiation; experiment: Whole body γ-irradiation (10 Gy), peptide 1.5 hours before irradiation; format: in vivo; conditions: 10 mg/kg i.p. 1.5 hours before 10 Gy; for Watery eyes / Weight loss: affected/total; for Mortality: dead/total
Protocol: (§1) In the first experiment, 12-week-old female BALB/c mice were treated intraperitoneally with a single injection of either PBS (n=9) or with a peptide (LQGV (SEQ ID NO:117), VLPALP (SEQ ID NO:140), LPGCPRGVNPVVS (SEQ ID NO:114), MTRVLQGVLPALPQVVC (SEQ ID NO:113); n=8, 10 mg/kg). One and a half hours after the treatment, mice were exposed whole body to a single dose of 10 Gy ^137Cs-γ-irradiation. In the second experiment, 12-week-old female BALB/c mice were first exposed whole body to a single dose of 10 Gy ^137Cs-γ-irradiation and then 1.5 hours after the irradiation treated intraperitoneally with a single injection of either PBS (n=9) or with a peptide (n=8 or 9, 10 mg/kg).

[2] = tested on: BALB/c mice exposed whole body to 10 Gy 137Cs-γ-irradiation; experiment: Whole body γ-irradiation (10 Gy), peptide 1.5 hours after irradiation; format: in vivo; conditions: 10 mg/kg i.p. 1.5 hours after 10 Gy; for Watery eyes / Weight loss: affected/total; for Mortality: dead/total
Protocol: as §1

[3] = tested on: cell-cycle marker pCDG and auxin-responsive marker DR5::GUS; experiment: Arabidopsis thaliana seedling cell-cycle analysis (GUS markers)
Protocol: To further study anti-cell-cycle activity of various oligopeptides, a proliferation experiment in Arabidopsis Thaliana seedlings was performed. The aim was to test a group of 140 oligopeptides of varying length for their effect on plant marker gene expression during rapid growth when avid cell division occurs.
The peptides were re-suspended in 1× Phosphate Buffer Saline (PBS) pH 8 to a final concentration of 5 mg/ml. The obtained solutions were then divided through 96-well round bottom plates (Corning Incorporated) at 40 microliters per well. Plates were stored before use at […] for four days. Seeds of Arabidopsis thaliana ecotype Ws-0 were surface sterilized in 2% commercial bleach (Gloria) for ten minutes and washed five times with sterile MQ water. The seeds were then re-suspended with 0.1% agar and plated on MS20 plates supplemented with 80 mg/l Kanamycin.
The plates were placed at […] for two nights and then transferred to a climate room at […] and a 16/8 hours photoperiod. After four days of growth, the seedlings were transferred to 96-well plates containing the peptide solutions (four seedlings per well) and incubated for four and eight hours.
For this experiment, Arabidopsis homozygous seedlings harboring two reporter genes fused to GUS were used. […] After incubation with the compounds, the seedlings were stained for GUS. The staining reaction was performed in 100 mM sodium phosphate buffer (pH 7.0) that contained 10 mM EDTA, 10% DMSO, 0.1% Triton X-100, 2 mM X-Gluc, 0.5 mM K3Fe(CN)6 and 0.5 mM K4Fe(CN)6 at […] for 16 hours. […] Seedlings were fixed and cleared in chloral hydrate solution for detailed microscopic observation and photography under a microscope equipped with DIC optics.
Peptides were tested for an effect on marker gene expression on rapidly growing Arabidopsis young seedlings. This was monitored by changes on GUS distribution in different organs: root, root-hypocotyl transition zone and cotyledons.

[4] = tested on: LPS (E. coli 026:B6)-induced septic shock in BALB/c mice; experiment: LPS-induced septic shock, single dose of peptide; format: in vivo; conditions: single dose 5 mg/kg
Protocol: (§2) Mice used in sepsis or septic shock experiments: Female BALB/c mice of eight to twelve weeks of age were used for all experiments. The animals were bred in our facility under specific pathogen-free conditions according to the protocols described in the […] of European Laboratory Animal Science Associations (FELASA) Working group on Animal Health (Laboratory Animals 28:1-24, 1994).
(§3) Injection protocols: For the endotoxin model, BALB/c mice were injected i.p. with 150-300 μg LPS (E. coli 026:B6; Difco Lab., Detroit, Mich., USA). Control groups were treated with PBS i.p. only. To test the effect of peptides, they were dissolved in PBS and injected i.p. at predetermined points in time after LPS treatment.
(§4) Mice were scored for sickness severity using the following measurement scheme: • 0 No abnormalities. • 1 Percolated fur, but no detectable behavior differences compared to normal mice. • 2 Percolated fur, huddle reflex, responds to stimuli (such as tap on cage), just as active during handling as healthy mouse. • 3 Slower response to tap on cage, passive or docile when handled, but still curious when alone in a new setting. • 4 Lack of curiosity, little or no response to stimuli, quite immobile. • 5 Labored breathing, inability or slow to self-right after being rolled onto back (moribund, sacrificed). • D Dead.
A first set of septic shock experiments were set up to determine which of the peptides LQG, LQGV (SEQ ID NO:117), VLPALP (SEQ ID NO:140), VLPALPQ (SEQ ID NO:143), MTR, MTRV (SEQ ID NO:119), VVC or QVVC (SEQ ID NO:118) were capable of inhibiting lipopolysaccharide (LPS)-induced septic shock in mice by treating mice with a single dose of peptide at two hours after LPS treatment. Peptides were used at 5 mg/kg bodyweight. BALB/c mice were injected i.p. with escalating doses LPS (E. coli 026:B6; Difco Lab., Detroit, Mich. USA), predetermined to be leading to 80 to 100% mortality in 24 to 72 hours.
To test the effect of peptide early in the development of shock, mice were treated at two hours or at 24 hours after treatment with varying doses of LPS by i.p. injection with test peptide at 5 mg/kg bodyweight.

[5] = tested on: high dose LPS (E. coli 026:B6)-induced septic shock in BALB/c mice; experiment: high dose LPS-induced septic shock, peptide administered twice; format: in vivo; conditions: peptide twice (t = 2 and 24 hours) 5 mg/kg
Protocol: as §2, §3, §4
A second set of septic shock experiments were set up to determine which of the peptides LQG, LQGV (SEQ ID NO:117), VLPALP (SEQ ID NO:140), VLPALPQ (SEQ ID NO:143), MTR, MTRV (SEQ ID NO:119), VVC or AQG, AQGV (SEQ ID NO:120), LAG and LAGV (SEQ ID NO:121) were capable of inhibiting high dose LPS-induced septic shock in mice by treating mice with a double dose of peptide at two and 24 hours after LPS treatment. At each treatment, peptides were used at 5 mg/kg bodyweight. BALB/c mice were injected i.p. with high doses LPS (E. coli 026:B6; Difco Lab., Detroit, Mich. USA), predetermined to be leading to 80 to 100% mortality in 24 to 72 hours.

[6] = tested on: LPS (E. coli 026:B6)-induced sepsis in BALB/c mice; experiment: endotoxin shock survival after early or late treatment with peptide; format: in vivo
Protocol: as §2, §3
A further set of septic shock experiments were set up to determine which of the peptides LQG, LQGV (SEQ ID NO:117), VLPALP (SEQ ID NO:140), VLPALPQ (SEQ ID NO:143), MTR, MTRV (SEQ ID NO:119), VVC or AQGV (SEQ ID NO:120) under study were most suited to be used early and/or late after or throughout the development of shock. For determining the percent of endotoxin shock survival after late or early treatment with peptide, BALB/c mice were injected i.p. with 300 μg LPS (E. coli 026:B6; Difco Lab., Detroit, Mich. USA), predetermined to be leading to 100% mortality in 48 hours without peptide treatment.
To evaluate the effect of peptide treatment at an early or late point in time of development of shock, mice were treated at two hours or at 24 hours after LPS injection by i.p. injection with test peptide at 5 mg/kg bodyweight. The mice were followed for 84 hours instead of for 48 hours in the earlier experiments.

C[C@]12CC[C@H]3[C@@H]([C@@H](O)C=C4C[C@@H](O)CC[C@@]43C)[C@@H]1CC[C@@H]2O [AET, 5-androstene-3B,7B, 17B-triol]
protection against gamma-irradiation (in words) (gamma-irradiated mice): No protection was observed

C[C@]12CC[C@H](O)CC1=CC[C@@H]1[C@@H]2CC[C@]2(C)C(=O)CC[C@@H]12 [DHEA, dehydroepiandrosterone]
protection against gamma-irradiation (in words) (gamma-irradiated mice): No protection was observed

C[C@]12CC[C@H]3[C@@H](CC=C4C[C@@H](O)CC[C@@]43C)[C@@H]1CC[C@@H]2O [Peptide 5-AED, 5-androstenediol]
dose reduction factor (gamma-irradiated mice; sc administration prior to WBI, from probit survival curves): 1.3

LPGCPRGVNPVVS
Watery eyes ([1]; day 0 after irradiation): 0/8
Weight loss ([1]; day 0 after irradiation): 0/8
Mortality ([1]; day 0 after irradiation): 0/8
Mortality ([1]; day 3 after irradiation): 0/8
Watery eyes ([1]; day 4 after irradiation): 1/8
Weight loss ([1]; day 4 after irradiation): 8/8
Mortality ([1]; day 4 after irradiation): 0/8
Mortality ([1]; day 5 after irradiation): 0/8
Mortality ([1]; day 6 after irradiation): 4/8
Mortality ([1]; day 7 after irradiation): 8/8
Watery eyes ([2]; day 0 after irradiation): 0/8
Weight loss ([2]; day 0 after irradiation): 0/8
Mortality ([2]; day 0 after irradiation): 0/8
Mortality ([2]; day 3 after irradiation): 0/8
Watery eyes ([2]; day 4 after irradiation): 0/8
Weight loss ([2]; day 4 after irradiation): 8/8
Mortality ([2]; day 4 after irradiation): 0/8
Mortality ([2]; day 5 after irradiation): 0/8
Mortality ([2]; day 6 after irradiation): 6/8
Mortality ([2]; day 7 after irradiation): 8/8

MTRVLQGVLPALPQVVC [residues 41-57 of loop 2 of the beta-subunit of hCG]
Watery eyes ([1]; day 0 after irradiation): 0/8
Weight loss ([1]; day 0 after irradiation): 0/8
Mortality ([1]; day 0 after irradiation): 0/8
Mortality ([1]; day 3 after irradiation): 0/8
Watery eyes ([1]; day 4 after irradiation): 1/8
Weight loss ([1]; day 4 after irradiation): 1/8
Mortality ([1]; day 4 after irradiation): 0/8
Mortality ([1]; day 5 after irradiation): 0/8
Mortality ([1]; day 6 after irradiation): 7/8
Mortality ([1]; day 7 after irradiation): 8/8
Watery eyes ([2]; day 0 after irradiation): 0/9
Weight loss ([2]; day 0 after irradiation): 0/9
Mortality ([2]; day 0 after irradiation): 0/9
Mortality ([2]; day 3 after irradiation): 0/9
Watery eyes ([2]; day 4 after irradiation): 0/9
Weight loss ([2]; day 4 after irradiation): 9/9
Mortality ([2]; day 4 after irradiation): 0/9
Mortality ([2]; day 5 after irradiation): 0/9
Mortality ([2]; day 6 after irradiation): 5/9
Mortality ([2]; day 7 after irradiation): 9/9

VVC
identified as useful peptide for treatment of radiation injury from cell-cycle studies in plants and in vitro proliferation studies ([3]; Results from Examples 9 and 10): useful
effect on cell-cycle marker (pCDG) and auxin-responsive marker (DR5::GUS) (in words) ([3]; seedlings incubated four and eight hours, 5 mg/ml peptide solution): clear effect on the tested markers
mice scored D (dead), effect at t = 24 hours ([4]; LPS dose 7**): 1
mice scored D (dead), effect at t = 48 hours ([4]; LPS dose 7**): 3
mice with sickness score 1, effect at t = 48 hours ([4]; LPS dose 7**): 1
mice with sickness score 2, effect at t = 48 hours ([4]; LPS dose 7**): 1
mice with sickness score 3, effect at t = 24 hours ([4]; LPS dose 7**): 2
mice with sickness score 3, effect at t = 48 hours ([4]; LPS dose 7**): 1
mice with sickness score 4, effect at t = 24 hours ([4]; LPS dose 7**): 1
mice with sickness score 5, effect at t = 24 hours ([4]; LPS dose 7**): 2
mice with sickness score 2, effect at t = 48 hours ([4]; LPS dose 7*): 4
mice with sickness score 3, effect at t = 24 hours ([4]; LPS dose 7*): 4
mice with sickness score 4, effect at t = 24 hours ([4]; LPS dose 7*): 2
mice with sickness score 5, effect at t = 48 hours ([4]; LPS dose 7*): 2
mice with sickness score 1, effect at t = 48 hours ([4]; LPS dose 10): 2
mice with sickness score 2, effect at t = 24 hours ([4]; LPS dose 10): 2
mice with sickness score 2, effect at t = 48 hours ([4]; LPS dose 10): 2
mice with sickness score 3, effect at t = 24 hours ([4]; LPS dose 10): 2
mice with sickness score 4, effect at t = 24 hours ([4]; LPS dose 10): 2
mice with sickness score 5, effect at t = 48 hours ([4]; LPS dose 10): 2
mice with sickness score 1, effect at t = 48 hours ([5]; LPS dose 10.5): 2
mice with sickness score 2, effect at t = 24 hours ([5]; LPS dose 10.5): 5
mice with sickness score 2, effect at t = 48 hours ([5]; LPS dose 10.5): 3
mice with sickness score 1, effect at t = 48 hours ([5]; LPS dose 11): 2
mice with sickness score 2, effect at t = 24 hours ([5]; LPS dose 11): 6
mice with sickness score 2, effect at t = 48 hours ([5]; LPS dose 11): 4
% Survival ([6]; 0 hours, peptide 5 mg/kg 2 hours after LPS): 100%
% Survival ([6]; 0 hours, peptide 5 mg/kg 24 hours after LPS): 100%
% Survival ([6]; 14 hours, peptide 5 mg/kg 2 hours after LPS): 100%
% Survival ([6]; 14 hours, peptide 5 mg/kg 24 hours after LPS): 100%
% Survival ([6]; 24 hours, peptide 5 mg/kg 2 hours after LPS): 100%
% Survival ([6]; 24 hours, peptide 5 mg/kg 24 hours after LPS): 100%
% Survival ([6]; 48 hours, peptide 5 mg/kg 2 hours after LPS): 80%
% Survival ([6]; 48 hours, peptide 5 mg/kg 24 hours after LPS): 100%
% Survival ([6]; 84 hours, peptide 5 mg/kg 2 hours after LPS): 50%
% Survival ([6]; 84 hours, peptide 5 mg/kg 24 hours after LPS): 100%
